Results: PubChem BioAssay (NCI)
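The compound was tested at five concentrations on cells cultured in 96-well plates, with a 48-hour exposure period. GI50 marks 50% less growth. The concentration for full growth arrest is given as TGI.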

Legend:
Test in all cases: growth of human tumour cells (NCI), 48 h
[1] = tested on: ACHN renal
[2] = tested on: SW-620 colon
[3] = tested on: HCT-116 colon
[4] = tested on: SN12C renal
[5] = tested on: OVCAR-3 ovarian
[6] = tested on: SK-MEL-5 melanoma
[7] = tested on: NCI-H522 lung
[8] = tested on: A549 NSCLC
[9] = tested on: SF-295 CNS
[10] = tested on: NCI-H226 lung
[11] = tested on: HOP-62 NSCLC
[12] = tested on: SK-OV-3 ovarian
[13] = tested on: NCI/ADR-RES ovarian
[14] = tested on: COLO 205 colon
[15] = tested on: MDA-MB-468 breast
[16] = tested on: MDA-MB-435
[17] = tested on: OVCAR-5 ovarian
[18] = tested on: SK-MEL-28 melanoma
[19] = tested on: NCI-H23 lung
[20] = tested on: BT-549 breast
[21] = tested on: HCC-2998 colon
[22] = tested on: CCRF-CEM leukemia
[23] = tested on: OVCAR-4 ovarian
[24] = tested on: PC-3 prostate
[25] = tested on: MCF7 breast
[26] = tested on: NCI-H460 lung
[27] = tested on: DU-145 prostate
[28] = tested on: EKVX NSCLC
[29] = tested on: M14 melanoma
[30] = tested on: HOP-92 NSCLC
[31] = tested on: SNB-75 CNS
[32] = tested on: IGROV1 ovarian
[33] = tested on: OVCAR-8 ovarian
[34] = tested on: RPMI-8226 leukemia
[35] = tested on: K-562 leukemia
[36] = tested on: U251 CNS
[37] = tested on: A498 renal
[38] = tested on: MOLT-4 leukemia
[39] = tested on: SK-MEL-2 melanoma
[40] = tested on: SF-539 CNS
[41] = tested on: HL-60(TB) leukemia
[42] = tested on: HT29 colon
[43] = tested on: SF-268 CNS
[44] = tested on: UO-31 renal
[45] = tested on: LOX IMVI melanoma
[46] = tested on: HS 578T breast
[47] = tested on: MDA-MB-231 breast
[48] = tested on: UACC-62 melanoma
[49] = tested on: T-47D breast
[50] = tested on: CAKI-1 renal
[51] = tested on: 786-0 renal
[52] = tested on: SNB-19 CNS
[53] = tested on: TK-10 renal
[54] = tested on: MALME-3M melanoma
[55] = tested on: RXF 393 renal
[56] = tested on: KM12 colon
[57] = tested on: HCT-15 colon
[58] = tested on: UACC-257 melanoma

## COC1=C[C@]23CCC(=O)N2CCc2cc4c(cc2[C@@H]3[C@@H]1OC(=O)[C@H](C)O)OCO4
[1]
  GI50: 3.65 µM
  TGI: 30.4 µM
[2]
  GI50: 8.06 µM
  TGI: > 52 µM
[3]
  GI50: 2.33 µM
  TGI: > 52 µM
[4]
  GI50: 14.5 µM
  TGI: > 52 µM
[5]
  GI50: 4.11 µM
  TGI: 42.2 µM
[6]
  GI50: 3.7 µM
  TGI: 12.4 µM
[7]
  GI50: 3.89 µM
  TGI: 17.7 µM
[8]
  GI50: 7.13 µM
  TGI: 50.6 µM
[9]
  GI50: 9.24 µM
  TGI: 36.3 µM
[10]
  GI50: 3.52 µM
  TGI: 29.8 µM
[11]
  GI50: 10.2 µM
  TGI: > 52 µM
[12]
  GI50: 7.82 µM
  TGI: 51.5 µM
[13]
  GI50: 13.7 µM
  TGI: > 52 µM
[14]
  GI50: 7.67 µM
  TGI: 31.5 µM
[15]
  GI50: 2.3 µM
  TGI: 15.1 µM
[16]
  GI50: 11.2 µM
  TGI: 45.5 µM
[17]
  GI50: 11.4 µM
  TGI: > 52 µM
[18]
  GI50: 8.47 µM
  TGI: 31.5 µM
[19]
  GI50: 7.5 µM
  TGI: 24.5 µM
[20]
  GI50: 10.5 µM
  TGI: 32.8 µM
[21]
  GI50: 2.27 µM
  TGI: 10.5 µM
[22]
  GI50: 4.77 µM
  TGI: 41.6 µM
[23]
  GI50: 8.79 µM
  TGI: > 52 µM
[24]
  GI50: 6.71 µM
  TGI: 44.6 µM
[25]
  GI50: 1.54 µM
  TGI: 10.2 µM
[26]
  GI50: 1.65 µM
  TGI: 13.1 µM
[27]
  GI50: 12.1 µM
  TGI: > 52 µM
[28]
  GI50: 10.5 µM
  TGI: > 52 µM
[29]
  GI50: 6.74 µM
  TGI: 15.8 µM
[30]
  GI50: 6.12 µM
  TGI: 33.4 µM
[31]
  GI50: 6.59 µM
  TGI: 30.3 µM
[32]
  GI50: 6.52 µM
  TGI: > 52 µM
[33]
  GI50: 11.7 µM
  TGI: 48.9 µM
[34]
  GI50: 3.23 µM
  TGI: 21 µM
[35]
  GI50: 2.61 µM
  TGI: > 52 µM
[36]
  GI50: 6.76 µM
  TGI: 36.4 µM
[37]
  GI50: 6.02 µM
  TGI: 32.1 µM
[38]
  GI50: 1.87 µM
  TGI: > 52 µM
[39]
  GI50: 12.6 µM
  TGI: > 52 µM
[40]
  GI50: 2.99 µM
  TGI: 14.8 µM
[41]
  GI50: 2.01 µM
  TGI: > 52 µM
[42]
  GI50: 4.41 µM
  TGI: > 52 µM
[43]
  GI50: 15.3 µM
  TGI: > 52 µM
[44]
  GI50: 5.28 µM
  TGI: 39.3 µM
[45]
  GI50: 2.31 µM
  TGI: 13.3 µM
[46]
  GI50: 8.04 µM
  TGI: 35.6 µM
[47]
  GI50: 13.2 µM
  TGI: > 52 µM
[48]
  GI50: 9.25 µM
  TGI: > 52 µM
[49]
  GI50: 6.98 µM
  TGI: 47.1 µM
[50]
  GI50: 14.1 µM
  TGI: > 52 µM
[51]
  GI50: 11 µM
  TGI: 42.9 µM
[52]
  GI50: 4.85 µM
  TGI: 31.1 µM
[53]
  GI50: 15.8 µM
  TGI: > 52 µM
[54]
  GI50: 2.62 µM
  TGI: 16.2 µM
[55]
  GI50: 1.63 µM
  TGI: 5.85 µM
[56]
  GI50: 10.4 µM
  TGI: > 52 µM
[57]
  GI50: 5.08 µM
  TGI: 25 µM
[58]
  GI50: 10.5 µM
  TGI: 42.1 µM
